Measurements reported in ChEMBL document CHEMBL3400111, “Synthesis and melanogenesis evaluation of 3',4',7-trihydroxyflavanone derivatives and characterization of flavanone-BODIPY” (Bioorg Med Chem Lett, 2015).
Calls of active or inactive are those of the source. The rule behind the calls is not given here.

What was measured:
B16-F10 [1] = assay: Induction of melanin synthesis in mouse B16F10 cells after 48 hrs by fluorescence microscopy relative to control; format: functional; design: concentration or dose not given beside the values
Mus musculus [2] = assay: Induction of melanogenesis in C57BL/6 depigmentation mouse assessed as increase in TRP-2 protein expression at 1.6 to 4.8 mg/kg, ip for 2 weeks measured on day 12 by H&E staining-based histomorphology; format: functional, organism-based
Mus musculus [3] = assay: Induction of melanogenesis in C57BL/6 depigmentation mouse assessed as increase in MITF protein expression at 1.6 to 4.8 mg/kg, ip for 2 weeks measured on day 12 by H&E staining-based histomorphology; format: functional, organism-based
Mus musculus [4] = assay: Induction of melanogenesis in C57BL/6 depigmentation mouse assessed as increase in TRP-1 protein expression at 1.6 to 4.8 mg/kg, ip for 2 weeks measured on day 12 by H&E staining-based histomorphology; format: functional, organism-based
Mus musculus [5] = assay: Induction of melanogenesis in C57BL/6 depigmentation mouse assessed as increase in tyrosinase protein expression at 1.6 to 4.8 mg/kg, ip for 2 weeks measured on day 12 by H&E staining-based histomorphology; format: functional, organism-based
Mus musculus [6] = assay: Induction of melanogenesis in C57BL/6 depigmentation mouse assessed as increase in melanin content of hair follicle on depigmented skin at 1.6 to 4.8 mg/kg, ip for 2 weeks by H&E stainig-based histomorphology; format: functional, organism-based
B16-F10 [7] = assay: Induction of melanogenesis in mouse B16F10 cells at 0.01 to 10 uM after 48 hrs by fluorescence microscopy relative to control; format: functional, cell-based
[8] = Cellular uptake in mouse B16F10 cells at 0.1 uM after 4 hrs by confocal imaging analysis in presence of 0.1 to 1 uM 3',4',7-trihydroxyflavaonone; format: ADME, cell-based; details: b16-f10, 4 h
[9] = Drug uptake in mouse B16F10 cell nucleus at 0.1 uM after 4 hrs by DAPI staining-based confocal imaging analysis; format: ADME; details: b16-f10, 4 h
[10] = Drug uptake in mouse B16F10 cell endoplasmic reticulum at 0.1 uM after 4 hrs by ER-tracker Red staining-based confocal imaging analysis; format: ADME; details: b16-f10, 4 h

COc1ccc2c(c1)OC(c1ccc(OC(=O)c3ccc(Cl)cc3)c(OC(=O)c3ccc(Cl)cc3)c1)CC2=O (centres undefined)
Activity (B16-F10 [1]): 121.98%

COc1ccc2c(c1)OC(c1ccc(O)c(O)c1)CC2=O (centres undefined)
Activity (B16-F10 [1]): 110.31%

CCCCCCCCCCCC(=O)Oc1ccc(C2CC(=O)c3ccc(OC)cc3O2)cc1O (centres undefined)
Activity (B16-F10 [1]): 74.13%

CCCCCCCCCCCCCC(=O)Oc1ccc(C2CC(=O)c3ccc(OC)cc3O2)cc1O (centres undefined)
Activity (B16-F10 [1]): 44.63%

COc1ccc2c(c1)OC(c1ccc(O)c(O)c1)C/C2=N/O (centres undefined)
Activity (Mus musculus [2]): Active | Activity (Mus musculus [3]): Active | Activity (Mus musculus [4]): Active | Activity (Mus musculus [5]): Active | Activity (Mus musculus [6]): Active | Activity (B16-F10 [1]): 134.71%

CCC(=O)Oc1ccc(C2CC(=O)c3ccc(OC)cc3O2)cc1OC(=O)CC (centres undefined)
Activity (B16-F10 [1]): 133.65%

COc1ccc2c(c1)OC(c1ccc(OS(=O)(=O)c3ccc(C)cc3)c(OS(=O)(=O)c3ccc(C)cc3)c1)CC2=O (centres undefined)
Activity (B16-F10 [1]): 100.52%

COc1ccc2c(c1)OC(c1ccc(OC(=O)c3ccco3)c(OC(=O)c3ccco3)c1)CC2=O (centres undefined)
Activity (B16-F10 [1]): 96.11%

C=CCOc1ccc(C2CC(=O)c3ccc(OC)cc3O2)cc1OCC=C (centres undefined)
Activity (B16-F10 [1]): 91.19%

COc1ccc2c(c1)OC(c1ccc(OC(=O)c3ccc(C)cc3)c(OC(=O)c3ccc(C)cc3)c1)CC2=O (centres undefined)
Activity (B16-F10 [1]): 113.49%

COc1ccc2c(c1)OC(c1ccc(OC(=O)c3ccccc3)c(OC(=O)c3ccccc3)c1)CC2=O (centres undefined)
Activity (B16-F10 [1]): 121.43%

COc1ccc2c(c1)OC(c1ccc(OC(=O)c3ccc(F)cc3)c(OC(=O)c3ccc(F)cc3)c1)CC2=O (centres undefined)
Activity (B16-F10 [1]): 111.79%

COc1ccc2c(c1)OC(c1ccc(OC(C)=O)c(OC(C)=O)c1)CC2=O (centres undefined)
Activity (B16-F10 [1]): 132.3%

CCCCCCCCCCCC(=O)Oc1ccc(C2CC(=O)c3ccc(OC)cc3O2)cc1OC(=O)CCCCCCCCCCC (centres undefined)
Activity (B16-F10 [1]): 89.54%

COc1ccc2c(c1)OC(c1ccc(OC(=O)c3ccccc3Cl)c(OC(=O)c3ccccc3Cl)c1)CC2=O (centres undefined)
Activity (B16-F10 [1]): 119.46%

CC1=CC(C)=[N+]2C1=C(CCC(=O)N/N=C1\CC(c3ccc(O)c(O)c3)Oc3cc(O)ccc31)c1c(C)cc(C)n1[B-]2(F)F (centres undefined)
Activity (B16-F10 [7]): Active | Drug uptake [8]: Not Active | Drug uptake [9]: Active | Drug uptake [10]: Active
